Test results from the kinase profiling compilation of Christmann-Franck et al. (2016).

What was measured:
Assay in all cases: radiometric filter-binding kinase assay, Kinase HotSpot
Details in all cases: compound 0.5 µM; ATP 10 µM
[1] = target: EPHA1 (human) (UniProt P21709)
[2] = target: MST4 (human) (UniProt Q9P289)
[3] = target: CHEK2 (human) (UniProt O96017)
[4] = target: CDK4 CCND3 (human) (UniProt P30281+P11802)
[5] = target: MATK (human) (UniProt P42679)
[6] = target: MARK4 (human) (UniProt Q96L34)
[7] = target: MAP3K7 TAB1 (human) (UniProt O43318+Q15750)
[8] = target: ULK1 (human) (UniProt O75385)
[9] = target: CDK2 CCNA2 (human) (UniProt P24941+P20248)
[10] = target: ERBB4 (human) (UniProt Q15303)
[11] = target: CDK9 CCNK (human) (UniProt O75909+P50750)
[12] = target: WNK3 (human) (UniProt Q9BYP7)
[13] = target: HIPK2 (human) (UniProt Q9H2X6)
[14] = target: CAMK2B (human) (UniProt Q13554)
[15] = target: ROCK2 (human) (UniProt O75116)
[16] = target: FGFR3 (human) (UniProt P22607)
[17] = target: NEK4 (human) (UniProt P51957)
[18] = target: CDK1 CCNB1 (human) (UniProt P06493+P14635)
[19] = target: LIMK1 (human) (UniProt P53667)
[20] = target: CHEK1 (human) (UniProt O14757)
[21] = target: AXL (human) (UniProt P30530)
[22] = target: PHKG2 (human) (UniProt P15735)
[23] = target: PRKD2 (human) (UniProt Q9BZL6)
[24] = target: FLT3 (human) (UniProt P36888)
[25] = target: PRKG2 (human) (UniProt Q13237)
[26] = target: CHUK (human) (UniProt O15111)
[27] = target: NEK9 (human) (UniProt Q8TD19)
[28] = target: TBK1 (human) (UniProt Q9UHD2)
[29] = target: PIM3 (human) (UniProt Q86V86)
[30] = target: KDR (human) (UniProt P35968)
[31] = target: GSK3A (human) (UniProt P49840)
[32] = target: RPS6KA5 KD2 (human) (UniProt O75582)
[33] = target: PRKACA (human) (UniProt P17612)
[34] = target: CSNK1E (human) (UniProt P49674)
[35] = target: TGFBR2 (human) (UniProt P37173)
[36] = target: RPS6KA4 KD2 (human) (UniProt O75676)
[37] = target: MAP4K5 (human) (UniProt Q9Y4K4)
[38] = target: ACVRL1 (human) (UniProt P37023)
[39] = target: VRK1 (human) (UniProt Q99986)
[40] = target: ABL2 (human) (UniProt P42684)
[41] = target: PDGFRA (human) (UniProt P16234)

Sequence of CHUK (human) (O15111 whole entry, looked up): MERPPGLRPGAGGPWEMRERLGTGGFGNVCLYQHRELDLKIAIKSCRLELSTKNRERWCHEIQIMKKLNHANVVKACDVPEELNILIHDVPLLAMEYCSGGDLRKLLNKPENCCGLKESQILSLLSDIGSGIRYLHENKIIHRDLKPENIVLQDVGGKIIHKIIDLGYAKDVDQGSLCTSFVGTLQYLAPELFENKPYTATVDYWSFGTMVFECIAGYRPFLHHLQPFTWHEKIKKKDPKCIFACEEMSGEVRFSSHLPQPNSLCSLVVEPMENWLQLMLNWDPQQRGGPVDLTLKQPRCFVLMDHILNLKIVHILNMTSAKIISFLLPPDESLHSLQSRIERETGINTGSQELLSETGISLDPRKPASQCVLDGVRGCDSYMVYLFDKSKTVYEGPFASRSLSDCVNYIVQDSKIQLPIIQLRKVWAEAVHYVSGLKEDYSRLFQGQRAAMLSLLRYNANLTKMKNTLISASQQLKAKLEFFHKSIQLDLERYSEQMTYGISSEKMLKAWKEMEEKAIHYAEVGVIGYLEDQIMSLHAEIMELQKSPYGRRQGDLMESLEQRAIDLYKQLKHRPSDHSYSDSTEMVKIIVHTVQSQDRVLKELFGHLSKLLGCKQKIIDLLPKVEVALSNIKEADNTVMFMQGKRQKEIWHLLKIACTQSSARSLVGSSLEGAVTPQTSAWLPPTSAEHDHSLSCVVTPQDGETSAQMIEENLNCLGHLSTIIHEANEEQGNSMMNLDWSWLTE
Sequence of MAP4K5 (human) (Q9Y4K4 whole entry, looked up): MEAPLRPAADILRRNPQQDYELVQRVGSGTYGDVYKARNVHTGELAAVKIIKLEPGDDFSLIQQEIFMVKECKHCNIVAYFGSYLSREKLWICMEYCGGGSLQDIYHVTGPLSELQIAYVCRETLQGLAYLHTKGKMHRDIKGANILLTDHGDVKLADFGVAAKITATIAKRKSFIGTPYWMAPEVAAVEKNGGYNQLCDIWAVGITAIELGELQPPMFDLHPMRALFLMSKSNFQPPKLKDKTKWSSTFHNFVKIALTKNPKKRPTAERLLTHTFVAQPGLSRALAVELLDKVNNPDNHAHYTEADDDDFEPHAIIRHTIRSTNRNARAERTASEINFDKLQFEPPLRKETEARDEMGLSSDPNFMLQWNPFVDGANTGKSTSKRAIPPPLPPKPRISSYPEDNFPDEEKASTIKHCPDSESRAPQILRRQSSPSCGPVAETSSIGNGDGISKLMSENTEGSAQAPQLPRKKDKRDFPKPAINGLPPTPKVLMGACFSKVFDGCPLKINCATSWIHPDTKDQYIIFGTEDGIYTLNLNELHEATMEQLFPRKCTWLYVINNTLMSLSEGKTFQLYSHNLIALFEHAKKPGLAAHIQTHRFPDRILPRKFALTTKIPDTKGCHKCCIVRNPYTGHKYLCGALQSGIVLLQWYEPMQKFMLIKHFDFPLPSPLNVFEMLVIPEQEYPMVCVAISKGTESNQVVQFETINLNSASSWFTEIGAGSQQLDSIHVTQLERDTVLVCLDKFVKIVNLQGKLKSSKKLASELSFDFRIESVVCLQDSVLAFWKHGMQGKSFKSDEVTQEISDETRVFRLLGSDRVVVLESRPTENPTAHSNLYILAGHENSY
Sequence of CDK9 CCNK (human) (O75909 whole entry, looked up): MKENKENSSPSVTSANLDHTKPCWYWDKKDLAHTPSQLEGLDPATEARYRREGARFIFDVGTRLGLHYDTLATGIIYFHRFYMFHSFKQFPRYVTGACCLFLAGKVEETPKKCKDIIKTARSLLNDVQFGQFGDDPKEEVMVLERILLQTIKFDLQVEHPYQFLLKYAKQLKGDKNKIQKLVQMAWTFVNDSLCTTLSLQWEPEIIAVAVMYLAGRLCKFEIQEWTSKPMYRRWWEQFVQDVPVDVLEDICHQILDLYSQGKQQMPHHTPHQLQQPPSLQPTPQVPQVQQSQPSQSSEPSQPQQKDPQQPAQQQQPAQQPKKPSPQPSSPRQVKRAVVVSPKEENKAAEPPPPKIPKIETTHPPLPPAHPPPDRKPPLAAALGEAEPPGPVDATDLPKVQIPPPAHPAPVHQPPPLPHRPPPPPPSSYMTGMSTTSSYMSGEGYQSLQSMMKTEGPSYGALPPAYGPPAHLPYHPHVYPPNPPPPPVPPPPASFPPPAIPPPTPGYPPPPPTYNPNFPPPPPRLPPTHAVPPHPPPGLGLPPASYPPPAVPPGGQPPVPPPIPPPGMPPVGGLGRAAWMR
Sequence of CDK9 CCNK (human) (P50750 whole entry, looked up): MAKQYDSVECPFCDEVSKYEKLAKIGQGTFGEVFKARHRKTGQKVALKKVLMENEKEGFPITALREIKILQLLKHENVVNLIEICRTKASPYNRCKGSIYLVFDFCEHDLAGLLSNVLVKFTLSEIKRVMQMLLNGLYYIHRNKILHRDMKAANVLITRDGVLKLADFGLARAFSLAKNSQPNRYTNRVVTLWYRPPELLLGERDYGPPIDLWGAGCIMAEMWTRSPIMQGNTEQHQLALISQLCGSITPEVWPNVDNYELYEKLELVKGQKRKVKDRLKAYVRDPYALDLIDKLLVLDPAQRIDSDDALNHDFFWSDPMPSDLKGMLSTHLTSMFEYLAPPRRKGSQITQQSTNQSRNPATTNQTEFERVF
Sequence of TGFBR2 (human) (P37173 whole entry, looked up): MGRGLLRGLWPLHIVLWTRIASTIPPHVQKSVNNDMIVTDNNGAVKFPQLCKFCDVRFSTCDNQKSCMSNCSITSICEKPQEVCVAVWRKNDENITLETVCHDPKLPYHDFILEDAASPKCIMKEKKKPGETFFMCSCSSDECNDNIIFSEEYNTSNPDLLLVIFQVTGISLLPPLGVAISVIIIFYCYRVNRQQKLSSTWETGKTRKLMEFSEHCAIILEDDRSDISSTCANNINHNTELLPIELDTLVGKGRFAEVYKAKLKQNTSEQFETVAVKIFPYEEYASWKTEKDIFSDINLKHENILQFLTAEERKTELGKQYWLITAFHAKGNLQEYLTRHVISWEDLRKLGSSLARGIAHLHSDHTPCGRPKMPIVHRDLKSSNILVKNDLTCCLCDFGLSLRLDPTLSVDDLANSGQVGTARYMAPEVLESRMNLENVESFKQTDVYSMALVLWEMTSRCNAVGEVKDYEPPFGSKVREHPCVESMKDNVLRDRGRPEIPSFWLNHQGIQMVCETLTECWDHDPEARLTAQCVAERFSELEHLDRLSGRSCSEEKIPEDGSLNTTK
Sequence of RPS6KA4 KD2 (human) (O75676 whole entry, looked up): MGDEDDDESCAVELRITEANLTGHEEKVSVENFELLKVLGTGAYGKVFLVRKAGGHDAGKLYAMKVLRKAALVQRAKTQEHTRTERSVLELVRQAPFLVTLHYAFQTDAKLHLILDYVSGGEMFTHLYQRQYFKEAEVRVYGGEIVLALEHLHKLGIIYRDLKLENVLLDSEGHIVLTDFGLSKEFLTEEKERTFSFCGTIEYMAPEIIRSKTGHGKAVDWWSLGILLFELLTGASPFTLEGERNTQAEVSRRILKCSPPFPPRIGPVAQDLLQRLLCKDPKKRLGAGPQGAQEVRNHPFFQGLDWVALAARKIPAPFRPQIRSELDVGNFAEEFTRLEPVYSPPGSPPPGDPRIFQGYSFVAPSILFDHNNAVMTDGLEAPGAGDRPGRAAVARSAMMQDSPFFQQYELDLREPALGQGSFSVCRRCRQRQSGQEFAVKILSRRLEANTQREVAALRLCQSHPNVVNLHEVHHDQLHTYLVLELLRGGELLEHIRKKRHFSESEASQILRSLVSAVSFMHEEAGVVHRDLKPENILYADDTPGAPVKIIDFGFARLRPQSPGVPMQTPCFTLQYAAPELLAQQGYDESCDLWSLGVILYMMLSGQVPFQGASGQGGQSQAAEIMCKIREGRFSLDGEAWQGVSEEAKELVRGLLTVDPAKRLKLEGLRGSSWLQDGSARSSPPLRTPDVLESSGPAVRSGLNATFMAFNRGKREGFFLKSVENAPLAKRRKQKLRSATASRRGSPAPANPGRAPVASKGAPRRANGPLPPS
Sequence of EPHA1 (human) (P21709 whole entry, looked up): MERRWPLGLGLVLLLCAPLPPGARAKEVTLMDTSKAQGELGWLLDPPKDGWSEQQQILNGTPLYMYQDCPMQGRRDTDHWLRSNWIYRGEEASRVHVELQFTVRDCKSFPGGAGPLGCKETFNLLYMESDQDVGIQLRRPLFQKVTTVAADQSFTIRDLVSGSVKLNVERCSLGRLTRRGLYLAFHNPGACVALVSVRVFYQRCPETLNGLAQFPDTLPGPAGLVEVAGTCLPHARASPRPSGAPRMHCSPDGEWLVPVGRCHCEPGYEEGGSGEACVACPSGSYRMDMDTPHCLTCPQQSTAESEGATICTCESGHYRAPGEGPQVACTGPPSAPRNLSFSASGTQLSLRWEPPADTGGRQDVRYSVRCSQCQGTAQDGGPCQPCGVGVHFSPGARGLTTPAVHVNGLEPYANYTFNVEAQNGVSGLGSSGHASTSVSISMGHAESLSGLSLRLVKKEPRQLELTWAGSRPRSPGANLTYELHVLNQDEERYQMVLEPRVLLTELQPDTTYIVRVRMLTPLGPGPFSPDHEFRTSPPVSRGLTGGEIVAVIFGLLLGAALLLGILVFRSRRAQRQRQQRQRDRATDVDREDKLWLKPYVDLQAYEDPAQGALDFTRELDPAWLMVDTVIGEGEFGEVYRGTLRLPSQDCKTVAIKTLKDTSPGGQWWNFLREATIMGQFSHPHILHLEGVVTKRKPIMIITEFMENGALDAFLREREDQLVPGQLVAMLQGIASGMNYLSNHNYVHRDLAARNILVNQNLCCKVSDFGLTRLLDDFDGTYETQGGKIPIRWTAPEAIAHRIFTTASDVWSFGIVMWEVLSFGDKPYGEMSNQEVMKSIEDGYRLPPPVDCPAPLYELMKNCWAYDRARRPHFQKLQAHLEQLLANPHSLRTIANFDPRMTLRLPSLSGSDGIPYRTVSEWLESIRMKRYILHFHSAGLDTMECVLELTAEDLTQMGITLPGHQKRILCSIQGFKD

Structure (SMILES): CC(C)n1cnc2c(Nc3cccc(Cl)c3)nc(NCCO)nc21
- residual activity [1]: 94.1%
- residual activity [2]: 87.9%
- residual activity [3]: 78.5%
- residual activity [4]: 93.3%
- residual activity [5]: 93.3%
- residual activity [6]: 88.1%
- residual activity [7]: 92.7%
- residual activity [8]: 77.6%
- residual activity [9]: 42%
- residual activity [10]: 101%
- residual activity [11]: 86.9%
- residual activity [12]: 77.7%
- residual activity [13]: 93.3%
- residual activity [14]: 95.9%
- residual activity [15]: 97.5%
- residual activity [16]: 95.1%
- residual activity [17]: 89.1%
- residual activity [18]: 46.6%
- residual activity [19]: 105%
- residual activity [20]: 87.1%
- residual activity [21]: 91.3%
- residual activity [22]: 93.2%
- residual activity [23]: 88.1%
- residual activity [24]: 15.1%
- residual activity [25]: 82.7%
- residual activity [26]: 96.1%
- residual activity [27]: 81.1%
- residual activity [28]: 89.2%
- residual activity [29]: 90.4%
- residual activity [30]: 103%
- residual activity [31]: 103%
- residual activity [32]: 87%
- residual activity [33]: 99.5%
- residual activity [34]: 65.4%
- residual activity [35]: 70.2%
- residual activity [36]: 83.8%
- residual activity [37]: 81.5%
- residual activity [38]: 103%
- residual activity [39]: 96.3%
- residual activity [40]: 60.7%
- residual activity [41]: 96.4%

Structure (SMILES): Cc1cc2ncc(-c3ccccc3)nc2cc1C
- residual activity [1]: 99.9%
- residual activity [2]: 97.6%
- residual activity [3]: 96.8%
- residual activity [4]: 94.6%
- residual activity [5]: 95.4%
- residual activity [6]: 105%
- residual activity [7]: 89.9%
- residual activity [8]: 84.1%
- residual activity [9]: 99.3%
- residual activity [10]: 96.4%
- residual activity [11]: 101%
- residual activity [12]: 103%
- residual activity [13]: 97%
- residual activity [14]: 101%
- residual activity [15]: 88.1%
- residual activity [16]: 98%
- residual activity [17]: 99.3%
- residual activity [18]: 108%
- residual activity [19]: 102%
- residual activity [20]: 94.2%
- residual activity [21]: 100%
- residual activity [22]: 83.9%
- residual activity [23]: 96.5%
- residual activity [24]: 53.6%
- residual activity [25]: 99.3%
- residual activity [26]: 86.9%
- residual activity [27]: 93.1%
- residual activity [28]: 93.8%
- residual activity [29]: 103%
- residual activity [30]: 99.1%
- residual activity [31]: 104%
- residual activity [32]: 96.4%
- residual activity [33]: 108%
- residual activity [34]: 85.5%
- residual activity [35]: 130%
- residual activity [36]: 99.4%
- residual activity [37]: 89.3%
- residual activity [38]: 97.9%
- residual activity [39]: 101%
- residual activity [40]: 103%
- residual activity [41]: 95.4%
